Where two headings read alike, the source gives them in different places.
Assays:
[1] = test system: Hela, human cervical carcinoma; assay: preliminary anti-tumor screening in vitro, MTT method; assay type: cell-based; conditions: read-out: inhibition rates (%) Hela
Outline: (§1)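 Inhibition rates measured at 0.1, 1 or 10 μM compound; cell growth read by MTT for Hela, SRB for BGC-823, MCF-7 and A549.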

SW1990 = assay: anti-tumor activity in vitro (IC50), MTT; assay type: cell-based; conditions: Homo sapiens, 72 h
Protocol: (§2) Cancer cells were cultured in vitro. When cell growth reached logarithmic phase, the cells were collected and centrifuged at 1000 rpm for 5 min, before the supernate was removed and the cells were suspended in a moderate amount of medium, and then the concentration of cell was adjusted to 3.5×10^4/mL. The cell suspension was added into a 96-well plate with 100 μL per well and cultured in a cell incubator (37° C., 5% CO2) for 24 h. Then test drugs of different end concentrations were added, and the negative control group was added DMSO (end concentration was 0.5%), while each group afforded three repetitive holes. After cultivation for another 72 h in the cell incubator, a solution containing 5 mg/ml MTT (20 μL) was added into each well and the 96-well plate was placed at 37° C. for 3 h. To each well was added 150 μL DMSO, after oscillation in a shaking table for 5 min, the optical density (OD) values at 492 nm/620 nm were measured. IC50 values were calculated by Prism Graphpad statistical software.

MDA-MB-231 = assay: anti-tumor activity in vitro (IC50), MTT; assay type: cell-based; conditions: Homo sapiens, 72 h
Protocol: as §2

MKN45 = assay: anti-tumor activity in vitro (IC50), MTT; assay type: cell-based; conditions: Homo sapiens, MKN-45, 72 h
Protocol: as §2

95D = assay: anti-tumor activity in vitro (IC50), MTT; assay type: cell-based; conditions: Homo sapiens, 72 h
Protocol: as §2

HepG2 liver cancer cells = assay: anti-tumor activity in vitro (IC50), MTT; assay type: cell-based; conditions: Homo sapiens, 72 h
Protocol: as §2

HCT116 = assay: anti-tumor activity in vitro (IC50), MTT; assay type: cell-based; conditions: Homo sapiens, HCT-116, 72 h
Protocol: as §2

A549 = assay: anti-tumor activity in vitro (IC50), MTT; assay type: cell-based; conditions: Homo sapiens, 72 h
Protocol: as §2

Hela = assay: anti-tumor activity in vitro (IC50), MTT; assay type: cell-based; conditions: Homo sapiens, 72 h
Protocol: as §2

SKOV3 = assay: anti-tumor activity in vitro (IC50), MTT; assay type: cell-based; conditions: Homo sapiens, SK-OV-3, 72 h
Protocol: as §2

BEL7404 = assay: anti-tumor activity in vitro (IC50), MTT; assay type: cell-based; conditions: Homo sapiens, BEL-7404, 72 h
Protocol: as §2

HL-60 = assay: anti-tumor activity in vitro (IC50), MTT; assay type: cell-based; conditions: Homo sapiens, 72 h
Protocol: as §2

[2] = test system: MGC803 stomach cancer cells; assay: anti-tumor activity in vitro (IC50), MTT; assay type: cell-based; conditions: Homo sapiens, MGC-803, 72 h
Protocol: as §2

[3] = molecular target: T1, 20S proteasome extracted from rat liver (CT-L) (Rattus norvegicus, UniProt P18421+P28075); assay: inhibition of 20S proteasome, CT-L activity (fluorescent peptide); assay type: biochemical
T1 construct: 20S proteasome extracted from rat liver; from tissue; host or cells: rat liver
Protocol: (§3) 1 μg of 20S proteasome extracted from rat liver was incubated with a 100 μL solution containing various concentrations of the present compounds, 50 μM fluorescent peptides and 20 mM Tris-HCl at 37° C. for 1 h, respectively. […] 0.1% DMSO was used as a solvent control. Compared with the fluorescence of solvent control, an inhibition rate or IC50 value was calculated.

[4] = molecular target: T2, 20S proteasome extracted from rat liver (PGPH) (Rattus norvegicus, UniProt P28073+Q9JHW0); assay: inhibition of 20S proteasome, PGPH activity (fluorescent peptide); assay type: biochemical
T2 construct: 20S proteasome extracted from rat liver; from tissue; host or cells: rat liver
Protocol: as §3

A549, human lung cancer = assay: preliminary anti-tumor screening in vitro, SRB method; assay type: cell-based; conditions: read-out: inhibition rates (%) A549
Outline: as §1

BGC-823, liver cancer = assay: as above; assay type: cell-based; conditions: Homo sapiens, read-out: inhibition rates (%) BGC-823
Outline: as §1

MCF-7, breast cancer = assay: as above; assay type: cell-based; conditions: Homo sapiens, read-out: inhibition rates (%) MCF-7; for inhibition at 0.1 µM: MCF7, 0.1 μM; for inhibition at 1 µM: MCF7, 1 μM; for inhibition at 10 µM: MCF7, 10 μM
Outline: as §1

[5] = molecular target: T3, 20S proteasome extracted from rat liver (T-L) (Rattus norvegicus, UniProt P40112+Q9JHW0); assay: inhibition of 20S proteasome, T-L activity (fluorescent peptide); assay type: biochemical
T3 construct: 20S proteasome extracted from rat liver; from tissue; host or cells: rat liver
Protocol: as §3

[6] = liver cancer cells, read-out: IC50 (μM) HepG2
[7] = stomach cancer cells, MTT, read-out: IC50 (μM) MGC803

Row | SMILES | inhibition at 0.1 µM [1] [%] | inhibition at 1 µM [1] [%] | inhibition at 10 µM [1] [%] | IC50 (HepG2 liver cancer cells; read-out: IC50 HepG2) [µM] | IC50 (HepG2 liver cancer cells; [6]) [µM] | IC50 (Hela) [nM] | IC50 (HL-60) [nM] | IC50 ([2]; MTT, read-out: IC50 MGC803) [µM] | IC50 [2, 7] [µM] | inhibition at 0.1 µM (A549, human lung cancer) [%] | inhibition at 1 µM (A549, human lung cancer) [%] | inhibition at 10 µM (A549, human lung cancer) [%] | inhibition at 0.1 µM (BGC-823, liver cancer) [%] | inhibition at 1 µM (BGC-823, liver cancer) [%] | inhibition at 10 µM (BGC-823, liver cancer) [%] | inhibition at 0.1 µM (MCF-7, breast cancer) [%] | inhibition at 1 µM (MCF-7, breast cancer) [%] | inhibition at 10 µM (MCF-7, breast cancer) [%] | other results
1 | CC(C)C[C@H](NC(=O)[C@H](Cc1ccccc1)NC(=O)NCc1cccc(Cl)c1Cl)B(O)O [Example 20, N-L-phenylalanyl-L-leucine borate-N′-(2,3-dichloro-benzylamine)-urea] | 17.4 | 42.5 | 75.7 | 0.026 | 0.0378 | 117 | 27 | 0.0175 | 0.00733 | 65 | 68.2 | 69.3 | 50 | 47.1 | 50.2 | 32.2 | 42.2 | 45.5 | IC50 (SW1990): 80.3 nM; IC50 (MDA-MB-231): 25.1 nM; IC50 (MKN45): 20.1 nM; IC50 (95D): 41 nM; IC50 (HCT116): 23 nM; IC50 (A549): 1020 nM; IC50 (SKOV3): 46.3 nM; IC50 (BEL7404): 42.2 nM; inhibition at 0.2 µM ([3]; 0.2 μM, rat liver 20S proteasome, 37° C., 1 h, read-out: inhibition rates (%) CT-L): 91.9%; inhibition at 2 µM ([3]; 2 μM, rat liver 20S proteasome, 37° C., 1 h, read-out: inhibition rates (%) CT-L): 96.5%; inhibition at 20 µM ([3]; 20 μM, rat liver 20S proteasome, 37° C., 1 h, read-out: inhibition rates (%) CT-L): 97%; inhibition at 0.2 µM ([4]; 0.2 μM, rat liver 20S proteasome, 37° C., 1 h, read-out: inhibition rates (%) PGPH): -23%; inhibition at 2 µM ([4]; 2 μM, rat liver 20S proteasome, 37° C., 1 h, read-out: inhibition rates (%) PGPH): -26.6%; inhibition at 20 µM ([4]; 20 μM, rat liver 20S proteasome, 37° C., 1 h, read-out: inhibition rates (%) PGPH): -28.9%; melting point: 119 to 122 °C; inhibition at 0.2 µM ([5]; 0.2 μM, rat liver 20S proteasome, 37° C., 1 h, read-out: inhibition rates (%) T-L): 35.6%; inhibition at 2 µM ([5]; 2 μM, rat liver 20S proteasome, 37° C., 1 h, read-out: inhibition rates (%) T-L): 83.7%; inhibition at 20 µM ([5]; 20 μM, rat liver 20S proteasome, 37° C., 1 h, read-out: inhibition rates (%) T-L): 92.6%
2 | CC(C)C[C@H](NC(=O)[C@H](Cc1ccccc1)NC(=O)NCc1ccc(F)c(F)c1)B(O)O [Example 35, N-L-phenylalanyl-L-leucine borate-N′-3,4-difluoro-benzylamine-urea] | – | – | – | 0.019 | 0.0388 | 255 | – | 0.0167 | 0.0067 | – | – | – | – | – | – | – | – | – | IC50 [3]: 2 nM; IC50 [4]: 110 nM; IC50 [5]: 340 nM
3 | CC(C)C[C@H](NC(=O)[C@H](Cc1ccccc1)NC(=O)c1cnccn1)B(O)O [positive control, bortezomib, reference compound] | 41.6 | 43.2 | 47.3 | 0.00161 | 0.0366 | 224 | 7.6 | 0.00654 | 0.00578 | 59.9 | 63.8 | 66.1 | 41 | 43.6 | 46.8 | 27.6 | 32.8 | 40.7 | IC50 ([2]; MGC80-3, MTT, value ± spread, read-out: IC50 (μM), growth of stomach cancer cells (MGC80-3)): 0.0057 ± 0.001 µM
